# Assay results: patent publication US20200282009A1, “METHODS OF TREATING DISEASES ASSOCIATED WITH VASCULAR SMOOTH MUSCLE CELL PROLIFERATION” (BioLineRx Ltd., priority 2017, published 2020)
# [ ]: non-standard residue; d: D form. The star is where a group is joined. Benzoyl(4-F) = O=C(c1ccc(F)cc1)*; Cit = NC(=O)NCCC[C@H](N)C(=O)O
# Assays:
# SK-N-BE(2) cells [1] = assay: Cell survival assay (PI staining, FACS); assay type: cell-based, human; conditions: BL-8040 0-20 μM or AMD3100 10 and 20 μM, 24 hours
# Experimental: (§1) A total of 1×10^5 cells/mL were cultured in 24-well plates with […] RPMI 1640 medium supplemented with 10% FCS. 24 hours later, the medium was changed to RPMI 1640 supplemented with either 1% FCS, with BL-8040 or AMD3100 or ABT199. Then 24 hours later, the cells were harvested, washed, and stained with PI (Sigma). The number of live cells was counted and analyzed using FACS analysis.
# Shy-SY5Y cells [2] = assay: Cell survival assay (PI staining, FACS); assay type: cell-based, human; conditions: BL-8040 0-20 μM or AMD3100 10 and 20 μM, 24 hours
# Experimental: as §1
# SK-N-BE(2) cells [3] = assay: Soft agar colony assay; assay type: cell-based, human; conditions: BL-8040 20 μM or anti-CXCR4 1 μg/ml, 14 days
# Experimental: (§2) An agar base layer was prepared as follows: 45 mL RPMI plus 12% FCS was mixed with 15 mL RPMI 32 plus 12% FCS and 15 mL 2.5% agar in double-distilled water. The tumor cells were suspended in RPMI plus 10% FCS. Cell suspension was mixed in a ratio of 1:3 with the agar base solution. This mixture was then plated on top of a preformed solid agar base. CXCL12 (100 ng/mL) or BL-8040 (20 μM) or anti-CXCR4 (1 μg/ml) were added to the mixture. Fourteen days later, the number of colonies was counted in 10 different fields.
# Shy-SY5Y cells [4] = assay: Soft agar colony assay; assay type: cell-based, human; conditions: BL-8040 20 μM or anti-CXCR4 1 μg/ml, 14 days
# Experimental: as §2
# [5] = system: SK-N-BE(2) orthotopic xenograft tumors; assay: In-vivo orthotopic NB model (tumor growth, weight, survival); set-up: species or system NSG mice
# Experimental: (§3) Human SK-N-BE(2) cells were orthotopically injected into the left adrenal gland of 6-8 weeks old NSG mice. A 27-gauge needle was introduced through the left adrenal fat pad and 5×10∧5 cells/20 μl PBS were inoculated to the adrenal gland. NSG mice were maintained under defined flora conditions at the Hebrew University Pathogen-Free Animal Facility. Tumor growth and volume were monitored bi-weekly by using T2-weighted MRI until tumors reached the ethical limit volume and mice were randomized to drug-treated or control mice. Mice in the treated group were subjected to 2 treatment protocols. In the first treatment protocol BL-8040 (400 μg) was injected daily, starting three days following inoculation, and was continued for 35 days. In the second treatment protocol mice were monitored for 21 days. As of day 7, mice were treated with a daily injection of BL-8040 (400 μg) for 14 consecutive days.
# Magnetic resonance imaging (MRI) scans were performed on a horizontal 4.7T Biospec spectrometer (Bruker Medical) with a 3.5-cm birdcage coil. Mice were anesthetized with Isoflurane (Nicholas Piramal, India; 2% in a mixture of 30:70 O2:N2O). Tumor volume was assessed bi-weekly using T2-weighted (T2W) fast spin echo images (repetition time=2,000 ms; echo time=37 ms; in plane resolution=117 μm; slice thickness-1 mm). Tumor volume was manually assessed using Analyze-7.0 (BIR). For each subject, an exponential growth curve was fitted to the tumor volume data points (Matlab software).
# Data are presented as means±SD or ±SE. Statistical comparison of means was performed by a two-tailed unpaired Student's t test. Differences with a P<0.05 were determined as statistically significant. Statistical analysis of NB tumor mice survival following early treatment was performed using the Mantel-cox test.
# [6] = system: miR-15a, miR-16-1, BCL-2, CCND1; assay: qPCR of RNA from xenograft tumors; assay type: in vivo, NSG mice; conditions: treated vs un-treated tumors
# Experimental: Total RNA from various cell lines and mouse tissues was isolated using Trizol reagent (Invitrogen) according to the manufacture's protocol, followed by DNaseI treatment using the DNaseI Kit where needed (Ambion). The concentrations were measured by Nanodrop (ND spectrophotometer) and the integrity was analyzed by gel electrophoreses on 1% agarose gel.
# cDNA was synthesized from 0.5-1 μg total RNA using the Quanta Biosciences qScript™ cDNA Synthesis Kit (95047-100) for mRNA analysis, and using the qScript™ microRNA cDNA Synthesis Kit (95107-100) for miRNAs analysis. Quantiative PCR (qPCR) of miRNAs and mRNA was performed using the CFX384, C1000 touch thermal cycler (Bio-Rad) and a SYBR Green PCR Kit: Quanta Cat. #84018 and #84071, respectively. The fold expression and statistical significance were calculated using the 2-ΔΔ Ct method. All experiments were performed in triplicate.
# as §3
# Ki67, Cyclin D1, BCL-2 = assay: Immunohistochemistry of xenograft tumor sections; assay type: in vivo, NSG mice
# Experimental: For histological analysis, tumor tissue was cut into […] sections, deparaffinized with xylene, and hydrated through graded ethanol. Endogenous peroxidase was blocked by incubation for 5 minutes in 3% H2O2. A 25-mM citrate buffer (pH 6.0) was used for antigen retrieval, cooked in a pressure cooker for 20 minutes, and left to cool for 30 minutes at room temperature. Slides were washed in Optimax (Pharmatrade) and incubated with primary Ab diluted in CAS-Block (Zymed Laboratories). For Ki67 1:100 (Thermo Scientific), for CXCR4 anti-human CXCR4 monoclonal antibody clone 12G5 1:100 (R&D), for CXCL12 monoclonal CXCL12 antibody 79018 (R&D), for BCL-2 monoclonal BCL-2 antibody clone 124 (cell marque) and for cyclinD1 monoclonal BCL-1 antibody clone sp4 (spring). Staining overnight at 4° C. For all stainings, a conjugated horseradish peroxidase secondary Ab anti mouse or anti rabbit (Envision; Dako) was used for 30 minutes and developing was done with diaminobenzidine for 5 minutes followed by counterstaining with hematoxylin. For ki67, BCL-2 and Cyclin D1, staining levels were quantified using the Image Pro Analyzer image analysis software.
# as §3
# [7] = system: BCL-2, cycD1, pERK in Shy-SY5Y cells; assay: Western blot analysis of treated cells; assay type: cell-based, human; conditions: 20 μM, 24 hours
# CXCR4 receptor = CXCR4 receptor (Homo sapiens, UniProt P61073); conditions: Peled et al. 2012; cited from earlier work
# CXCR4 receptor, sequence (P61073 whole entry): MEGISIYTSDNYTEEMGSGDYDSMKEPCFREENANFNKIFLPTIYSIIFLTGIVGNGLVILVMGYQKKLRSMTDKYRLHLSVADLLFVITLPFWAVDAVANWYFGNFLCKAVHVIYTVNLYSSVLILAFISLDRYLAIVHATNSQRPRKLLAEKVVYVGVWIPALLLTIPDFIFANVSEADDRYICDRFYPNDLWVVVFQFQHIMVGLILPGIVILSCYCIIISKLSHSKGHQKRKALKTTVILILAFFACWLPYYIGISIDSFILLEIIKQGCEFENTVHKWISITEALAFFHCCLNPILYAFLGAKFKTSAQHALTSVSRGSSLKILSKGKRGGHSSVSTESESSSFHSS
substance,measurement,setting,value
4F-benzoyl-Arg-Arg-Nal-Cys-Tyr-Cit-Lys-DLys-Pro-Tyr-Arg-Cit-Cys-Arg-NH2 ({Benzoyl(4-F)}-RR[Nal]CY[Cit]K[dK]PYR[Cit]CR-NH2; not fully specified; printed as 4F-benzoyl-Arg-Arg-Nal-Cys-Tyr-Cit-Lys-DLys-Pro-Tyr-Arg-Cit-Cys-Arg-NH2; cysteine pairing not given here) [BL-8040],cell viability (viable cells counted),SK-N-BE(2) cells [1],decreased viability
same,cell viability (viable cells counted),Shy-SY5Y cells [2],decreased viability
same,colony formation,SK-N-BE(2) cells [3],reduces colony formation
same,colony formation,Shy-SY5Y cells [4],reduces colony formation
same,reduction in tumor weight,"[5]; 400 μg s.c. daily for 14 days from day 7, harvested day 21",3 fold
same,"survival of animals, average","[5]; 400 μg s.c. daily for 35 days from day 3, controls 35 days",61 days
same,"tumor growth (tumor volume, MRI)","[5]; 400 μg s.c. daily for 35 days from day 3, exponential growth after discontinuation",tumor growth attenuation
same,BCL-2 mRNA in tumors (qPCR),[6],significantly downregulated
same,CCND1 mRNA in tumors (qPCR),[6],significantly downregulated
same,miR-15a level in tumors (qPCR),[6]; n=9,significantly elevated
same,miR-16-1 level in tumors (qPCR),[6]; n=9,significantly elevated
same,Ki67 staining of tumor sections,"Ki67, Cyclin D1, BCL-2; 400 μg daily for 14 days from day 7, compared to controls",reduced Ki67 staining
same,"reduction in Cyclin D1 expression, tumor sections (IHC)","Ki67, Cyclin D1, BCL-2; treated vs control sections, significant",56%
same,"reduction in BCL-2 staining, tumor sections (IHC)","Ki67, Cyclin D1, BCL-2; treated vs control, staining weak, difference not significant",36%
same,BCL-2 protein (western blot),[7],reduction
same,ERK phosphorylation (western blot),[7],decreased ERK phosphorylation
same,cycD1 protein (western blot),[7],reduction
same,affinity of binding to the CXCR4 receptor,CXCR4 receptor,high affinity
same,receptor occupancy,CXCR4 receptor,long receptor occupancy
